In publication PMC3929365, “Benzimidazoisoquinolines: A New Class of Rapidly Metabolized Aryl Hydrocarbon Receptor (AhR) Ligands that Induce AhR-Dependent Tregs and Prevent Murine Graft-Versus-Host Disease” (PLoS ONE, 2014):
pIC50: −log10 of the molar value.

Tests used:
AhR [1] = assay: Electrophoretic mobility shift assay, binding of AhR to XRE; type: biochemical, mouse; conditions: 10 nM, 2 h, Hepa1c1c7 whole cell lysate
Procedure: (§1) Figure 1 10-Cl-BBQ is a potent AhR ligand. A) Structure of 10-Cl-BBQ. […] C) Hepa-1 cells expressing endogenous AhR were transfected with an AhR-regulated luciferase reporter gene (xenobiotic responsive element (XRE)-MMTVpromoter-Luc) and the reporter gene activity was measured after 12 h of treatment with 1 nM TCDD or the indicated concentrations of 10-Cl-BBQ. D) Alteration in proteolytic pattern of AhR by 10-Cl-BBQ. Whole cell lysate (45 µg of protein) from mouse hepatoma Hepa1c1c7 cells was incubated with 100 nM 10-Cl-BBQ or 0.1% DMSO for 1 h at RT and proteolyzed by 1 µg/ml subtilisin for 1, 2, 4, and 8 min at RT. Proteolytic cleavage products of AhR were analyzed by immunoblot. E) Electrophoretic mobility shift assay showing the ligand-stimulated binding of AhR to XRE. Whole cell lysate (18 µg of protein) from mouse hepatoma Hepa1c1c7 cells was incubated with 10 nM 10-Cl-BBQ or 0.1% DMSO for 2 h at room temperature and ^32P-labeled oligonucleotide containing XRE for 20 min at room temperature. The samples were electrophoresed on a native polyacrylamide gel and the signal was visualized by Phosphor Imager. Unlabeled competitor XRE or antibody (Ab) against AhR or Arnt was co-incubated with ^32P-labeled oligonucleotide.

activated T cells = assay: T cell proliferation in vitro (CFSE dilution, anti-CD3/anti-CD28); type: cell-based, C57Bl/6 mice; conditions: 100 nM, 72 h, anti-CD3 and anti-CD28
Procedure: (§2) A. Splenocytes from C57Bl/6 mice were labeled with CFSE and activated in vitro with anti-CD3 and anti-CD28 in the presence of 100 nM 10-Cl-BBQ or DMSO for 72 h. B. C57Bl/6 donor T cells were labeled with CFSE and injected into B6D2F1 host mice to initiate the GVH response. Host mice (n = 5 per group) were treated with vehicle or 10-Cl-BBQ i.p. (10 mg/kg/d) for two days. Donor cells were identified by gating on CD4^+CFSE^+ cells. […] (TIF) Click here for additional data file.

AhR [2] = tested on: AhR
Procedure: The AhR reporter gene assay was performed as previously described (20–22).
B) Hepa1 cells expressing endogenous AhR were transfected with a XRE-luciferase reporter gene. […] The mean luciferase activity is shown with SEM. C) Dose response curves for the competitive inhibition of [^3H] 3-MC binding to AhR.
3-methylcholanthrene (3-MC) to AhR (Fig. 5C).

AhR target genes = assay: Expression of known AhR target genes in Hepa1 cells (RT-qPCR); type: cell-based, mouse; conditions: 10 nM, eight hours
Procedure: Supplementary file pone.0088726.s001.tif: Figure S1 10-Cl-BBQ induces the expression of known AhR target genes. Hepa1 cells were treated with 10-Cl-BBQ (10 nM), TCDD (10 nM), or vehicle (DMSO) for eight hours. RNA was extracted and RT-qPCR was performed for a select set of known AhR target genes. AHRR: aryl hydrocarbon receptor repressor, ALDH3A1: aldehyde dehydrogenase family 3; subfamily A1, CYP1b1: cytochrome P450 1b1; Gstm3: glutathione S-transferase, mu 3; GST-Ya: glutathione S transferase, alpha 1; NQO1: NAD(P)H dehydrogenase quinone 1; UGT2b34: UDP glucuronosyltransferase 2 family, polypeptide B34. (TIF) Click here for additional data file.

AhR [3] = assay: AhR-regulated (XRE) luciferase reporter gene assay in Hepa-1 cells; type: cell-based, mouse; conditions: nanomolar concentrations, 12 h, Hepa-1 cells
Procedure: as §1
The mean luciferase activity is shown with SEM. […] 3-MC binding to AhR.

CD4+ T cells = assay: Donor CD4+ T cell proliferation in vivo (CFSE dilution) during the GVH response; design: species or system B6D2F1 host mice; conditions: 10 mg/kg/d i.p. for two days
Procedure: as §2

CYP1A1 mRNA = assay: Hepatic CYP1A1 mRNA induction after single i.p. dose; type: in vivo, C57BL/6 mice; conditions: 10 mg/kg i.p.
Procedure: RNA was isolated from lymph nodes of B6D2F1 host mice with the RNeasy Mini Kit (Qiagen). cDNA was prepared from at least 1 µg RNA in a 2-step reaction using the ReactionReady First Strand cDNA synthesis kit (SA Biosciences) according to the manufacturer’s instructions and Superscript III reverse-transcriptase (Life Technologies). The qPCR reaction was carried out on an ABI PRISM 7500 Real-Time PCR system (Applied Biosystems). The reaction mixture consisted of SYBR Green/ROX qPCR Master Mix (SA Bioscience), 2–10 ng-RNA equivalent cDNA and 1 µl of the gene-specific commercial primer sets (SA Biosciences). The following conditions were used: 10 min at 95°C (1 cycle), 15 s at 95°C and 1 min at 60°C (40 cycles). The melt-curve was generated at 95°C for 15 s. The process was validated by utilizing a no-reverse-transcriptase control. The raw data was normalized to Actb and the fold-change was calculated by the ΔΔCt method using vehicle-treated sample values as the control.
(§3) Figure 2 Pharmacokinetics of 10-Cl-BBQ. C57BL/6 mice were given 10 mg/kg 10-Cl-BBQ by i.p. injection. A) Blood was collected at the indicated times by cardiac puncture. The serum was processed to remove protein and the samples were analyzed by QTRAP 4000 LC/MS/MS. The serum concentration of 10-Cl-BBQ was determined from a standard curve based on known concentrations of 10-Cl-BBQ. B) Liver tissue was harvested and processed for mRNA analysis. CYP1A1 gene expression was determined relative to the β-actin gene, and the fold-induction was determined by the ΔΔCt method using the vehicle-treated samples as a control. The mean values are shown with SEM for 2–3 mice per time point.

AhR [4] = assay: Cytosol to nuclear translocation of AhR in Hepa-1 cells; type: cell-based, mouse; conditions: 10 nM, 1 h
[5] = Pharmacokinetics: serum concentration after single i.p. injection; type: in vivo, C57Bl/6 mice; conditions: 10 mg/kg i.p., mouse
Procedure: C57Bl/6 mice were injected i.p. with 10 mg/kg 10-Cl-BBQ. At defined time points, blood was collected by cardiac puncture. Serum was harvested and protein was precipitated by adding a 4-fold volume of ice-cold acetonitrile. The supernatant was collected and analyzed on a QTRAP 4000 LC/MS/MS instrument using an Agilent C8 UPLC column. The serum concentration of 10-Cl-BBQ was determined using a standard curve prepared using dilutions of 10,000; 5,000; 1,000; 500; 100; 50 and 10 pg/ml of 10-Cl-BBQ. The mean values (n = 2–3 mice per time point) are shown with SEM. Pharmacokinetic parameters were calculated using PKsolver software.
as §3

## O=c1c2cccc3cccc(c32)c2nc3ccc(Cl)cc3n12 [10-Cl-BBQ, 10-chloro-7H-benzimidazo[2,1-a]benzo[de]isoquinolin-7-one]
AhR [1]
  DNA binding of AhR (XRE): specifically induced DNA binding of AhR
Activated T cells
  proliferation of activated T cells in vitro: did not inhibit proliferation
AhR [2]
  pIC50: 8.59
AhR target genes
  induction of genes associated with AhR activation in hepatocytes: induced a battery of genes
AhR [3]
  activation of the AhR-regulated reporter gene: activated the AhR-regulated reporter gene
CD4+ T cells
  proliferation of activated T cells in vivo: did not inhibit proliferation
CYP1A1 mRNA; 4 hours
  Cyp1a1 mRNA induction in hepatic tissue: 2 fold
CYP1A1 mRNA; 20 hr
  Cyp1a1 mRNA induction in hepatic tissue: up to 7 fold
CYP1A1 mRNA; 48 h
  Cyp1a1 mRNA induction in hepatic tissue: no longer apparent
AhR [4]
  cytosol to nuclear translocation of AhR: promoted cytosol to nuclear translocation of AhR
[5]
  absorption rate constant (ka): 1.2 h⁻¹
  time required to reach Cmax (Tmax): 1.64 h
  total clearance/bioavailability (CL/F): 32.5 mL/min
[5]; C57Bl/6, serum, ip, one compartment model
  half-life: ~120 min
[5]; C57Bl/6, serum, ip, read-out: area under the concentration-time curve (AUC0-∞)
  AUC(0-inf): 102 ng·h/mL
[5]; C57Bl/6, serum, ip, read-out: maximum concentration reached in serum (Cmax)
  Cmax: 21.5 ng/mL
[5]; C57Bl/6, serum, ip, read-out: volume of distribution/bioavailability (V/F)
  Vd/F: 5.66 L
